This note sets out measurements from patent publication US11873291B2, “Quinoline cGAS antagonist compounds” (ImmuneSensor Therapeutics, Inc., priority 2020, dated 2024).

The subject of assay [1] is cGAS activity in Reporter THP1 cell line. Kind of assay: Cellular assay to measure cGAS activity: ISRE-Gaussia luciferase reporter THP1 cells transfected with ISD. It counts as cell-based. Conditions: Homo sapiens, THP-1, Table 4, Gaussia luciferase. How it is done:
Cellular assay to measure cGAS activity: Reporter THP1 cell line harboring a gene encoding Gaussia Luciferase under the control of 5 tandem repeats of interferon-stimulated response elements (ISRE) fused to an ISG54 minimal promoter was used to test inhibition of cGAS activity by synthetic compounds in human cells. These cells were plated on 96-well plates at 0.3×10^6/well and incubated with serial dilutions of compounds or DMSO for 5 min, followed by transfection of 2 μg/mL of ISD (Interferon Stimulatory DNA, a 45 bp DNA oligo) or mock transfected using lipofectamine 2000 (Life Technology) method, according to manufacturer's instructions. 16 hours later, 15 μL of the media from each well was transferred to a new plate, 50 μL of solution containing 50 mM Hepes-NaOH, pH 6.5, 50 mM NaCl, 10 mM EDTA, 1 μM of coelenterazine was added to each well and luminescence was measured immediately. Fold increase in luminescence compared to mock transfection was plotted against concentrations of each compound, and IC50 is calculated using Graphpad. To evaluate the specificity of a compound, the same procedure was performed except that cells were transfected with 2 μg/mL poly(I:C) or infected with Sendai Virus (SeV) at 50 Unit/mL, which are known to activate the RIG-I-MAVS pathway. A specific inhibitory compound should inhibit interferon induction by DNA but have minimal effect on poly(I:C) or Sendai virus induced interferon reporter gene expression.
The letter codes for cGAS IC50 include: A (<2 μM); B (2-10 μM); C (>10 μM).
In general terms: A reporter such as luciferase makes a cellular process visible.

For assay [2], the target named is T1, recombinant human cGAS (aa147-522) (Homo sapiens, UniProt Q8N884).
T1 construct: recombinant human cGAS (aa147-522); His6-SUMO (cleaved yes); made in house; host or cells: E. coli BL21/pLys
Kind of assay: In vitro inhibition assay of cGAS activity (ATP consumption, KinaseGlo Max). The conditions noted are these: Table 3, read-out: cGAS Inhibition Results IC50. Format: biochemical. The gist of the method: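 IC50 came from plotting % ATP consumption against log compound concentration, with leftover ATP detected by KinaseGlo Max chemiluminescence. Reactions ran 20 min at 37 °C with 1.5 μg/mL human cGAS (aa147-522), 6.6 μM ATP, 0.1 mM GTP and 0.01 mg/mL DNA at pH 7.5.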

T1 sequence (Q8N884 147-522): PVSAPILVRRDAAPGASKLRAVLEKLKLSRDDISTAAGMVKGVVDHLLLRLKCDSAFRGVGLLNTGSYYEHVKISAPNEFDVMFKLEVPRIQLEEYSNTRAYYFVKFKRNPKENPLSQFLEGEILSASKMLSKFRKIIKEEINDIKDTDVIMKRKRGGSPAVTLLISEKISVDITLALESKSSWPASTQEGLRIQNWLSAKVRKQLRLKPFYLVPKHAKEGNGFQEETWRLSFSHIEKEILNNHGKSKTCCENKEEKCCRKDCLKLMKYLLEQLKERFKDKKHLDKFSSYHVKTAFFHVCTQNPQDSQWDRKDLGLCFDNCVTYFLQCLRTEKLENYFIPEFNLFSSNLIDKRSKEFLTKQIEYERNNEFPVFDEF

`O=C(O)COC[C@@H]1CCCN1c1cc(-n2ccnc2)c2ccc(Cl)c(Cl)c2n1` [I-666, (S)-2-((1-(7,8-dichloro-4-(1H-imidazol-1-yl)quinolin-2-yl)pyrrolidin-2-yl)methoxy)acetic acid]: the IC50 in assay [1] and in assay [2] was under 2000 nM each time.

As to `COC(=O)COC[C@@H]1CCCN1c1cc(-n2ccnc2)c2ccc(Cl)c(Cl)c2n1` [I-667, methyl (S)-2-((1-(7,8-dichloro-4-(1H-imidazol-1-yl)quinolin-2-yl)pyrrolidin-2-yl)methoxy)acetate], the IC50 in assay [1] and in assay [2] was under 2000 nM each time.

`O=C(O)COCC[C@@H]1CCCN1c1cc(-n2ccnc2)c2ccc(Cl)c(Cl)c2n1` [I-668]: the IC50 in assay [1] and in assay [2] was under 2000 nM each time.

As to `COC(=O)COCC[C@@H]1CCCN1c1cc(-n2ccnc2)c2ccc(Cl)c(Cl)c2n1` [I-669], the IC50 is under 2000 nM in assay [1] and 2000 to 30000 nM in assay [2].

`O=C(O)CCOC[C@@H]1CCCN1c1cc(-c2cn[nH]c2)c2ccc(Cl)c(Cl)c2n1` [I-670]: the IC50 in assay [1] and in assay [2] was under 2000 nM each time.

In the case of `COC(=O)CCOC[C@@H]1CCCN1c1cc(-c2cn[nH]c2)c2ccc(Cl)c(Cl)c2n1` [I-671], the IC50 in assay [1] and in assay [2] was under 2000 nM each time.

On to `O=C(O)CCOCC[C@@H]1CCCN1c1cc(-n2ccnc2)c2ccc(Cl)c(Cl)c2n1` [I-672], for which the IC50 in assay [1] and in assay [2] was under 2000 nM in each case.

Turning to `COC(=O)CCOCC[C@@H]1CCCN1c1cc(-n2ccnc2)c2ccc(Cl)c(Cl)c2n1` [I-673], the results for the IC50 in assay [1] and in assay [2] were under 2000 nM and 2000 to 30000 nM, respectively.

Take `O=C(O)CCOC[C@H]1CCCN1c1cc(-n2ccnc2)c2ccc(Cl)c(Cl)c2n1` [I-674]: the IC50 is 2000 to 10000 nM in assay [1] and under 2000 nM in assay [2].

On to `O=C(O)CCCCOC[C@@H]1CCCN1c1cc(-n2ccnc2)c2ccc(Cl)c(Cl)c2n1` [I-676], for which the IC50 in assay [1] and in assay [2] was under 2000 nM each time.

For the compound `O=C(O)CCOCCC[C@@H]1CCCN1c1cc(-n2ccnc2)c2ccc(Cl)c(Cl)c2n1` [I-677], the IC50 in assay [1] and in assay [2] was under 2000 nM each time.

For the compound `OCCCOCC[C@@H]1CCCN1c1cc(-n2ccnc2)c2ccc(Cl)c(Cl)c2n1` [I-678], the IC50 was 2000 to 10000 nM in assay [1] and under 2000 nM in assay [2].

As for `O=C(O)CC[C@@H]1CCCN1c1cc(-n2ccnc2)c2ccc(Cl)c(Cl)c2n1` [I-679], the values for the IC50 in assay [1] and in assay [2] were 2000 to 10000 nM and under 2000 nM, respectively.

As for `COC(=O)CC[C@@H]1CCCN1c1cc(-n2ccnc2)c2ccc(Cl)c(Cl)c2n1` [I-680], the IC50 in assay [1] lay in the range of 2000 to 10000 nM; in assay [2] it was 2000 to 30000 nM.

Consider `COC(=O)CCC[C@@H]1CCCN1c1cc(-n2ccnc2)c2ccc(Cl)c(Cl)c2n1` [I-681], for which the IC50 is under 2000 nM in assay [1] and 2000 to 30000 nM in assay [2].

Regarding `O=C(O)CCC[C@@H]1CCCN1c1cc(-n2ccnc2)c2ccc(Cl)c(Cl)c2n1` [I-682], the IC50 in assay [1] and in assay [2] was under 2000 nM in each case.

As for `O=C(O)CCCC[C@@H]1CCCN1c1cc(-n2ccnc2)c2ccc(Cl)c(Cl)c2n1` [I-683], the IC50 in assay [1] and in assay [2] was under 2000 nM throughout.

In the case of `O=C(O)CCCC[C@@H]1CCCN1c1cc(-c2cn[nH]c2)c2ccc(Cl)c(Cl)c2n1` [I-684], the IC50 in assay [1] and in assay [2] was under 2000 nM throughout.

For `O=C(O)/C=C/C[C@@H]1CCCN1c1cc(-n2ccnc2)c2ccc(Cl)c(Cl)c2n1` [I-685], the IC50 in assay [1] and in assay [2] was under 2000 nM throughout.

Turning to `COC(=O)/C=C/C[C@@H]1CCCN1c1cc(-n2ccnc2)c2ccc(Cl)c(Cl)c2n1` [I-686], the values for the IC50 in assay [1] and in assay [2] were under 2000 nM and 2000 to 30000 nM, respectively.

On to `COC(=O)/C=C/[C@@H]1CCCN1c1cc(-n2ccnc2)c2ccc(Cl)c(Cl)c2n1` [I-687], for which the IC50 in assay [1] was over 10000 nM; in assay [2], 2000 to 30000 nM.

As to `O=C(O)CCOC[C@@H]1CCN1c1cc(-n2ccnc2)c2ccc(Cl)c(Cl)c2n1` [I-688], the half-maximal inhibitory concentration (IC50) in assay [1] and in assay [2] was under 2000 nM each time.

In the case of `O=C(O)CCOCC1CN(c2cc(-n3ccnc3)c3ccc(Cl)c(Cl)c3n2)C1` [I-689], the values for the IC50 in assay [1] and in assay [2] were over 10000 nM and under 2000 nM, respectively.

Regarding `O=C(O)CCCCCNc1cc(-n2ccnc2)c2ccc(Cl)c(Cl)c2n1` [I-690], the IC50 in assay [1] and in assay [2] was under 2000 nM each time.

With `CN(CCCCCC(=O)O)c1cc(-n2ccnc2)c2ccc(Cl)c(Cl)c2n1` [I-691], the IC50 in assay [1] and in assay [2] was under 2000 nM in each case.

As for `CN(CCCOCCC(=O)O)c1cc(-n2ccnc2)c2ccc(Cl)c(Cl)c2n1` [I-692], the IC50 in assay [1] and in assay [2] was under 2000 nM each time.

Take `O=C(O)CCOCCNc1cc(-n2ccnc2)c2ccc(Cl)c(Cl)c2n1` [I-693]: the IC50 in assay [1] is over 10000 nM; in assay [2], under 2000 nM.

In the case of `CN(CCOCCC(=O)O)c1cc(-n2ccnc2)c2ccc(Cl)c(Cl)c2n1` [I-694], the IC50 in assay [1] and in assay [2] was under 2000 nM throughout.

As to `O=C(O)CCOCC(Cc1ccccc1)Nc1cc(-n2ccnc2)c2ccc(Cl)c(Cl)c2n1` (centres unmarked) [I-695], the IC50 in assay [1] was 2000 to 10000 nM; in assay [2], 2000 to 30000 nM.

`C[C@@]1(COCCC(=O)O)CCCN1c1cc(-n2ccnc2)c2ccc(Cl)c(Cl)c2n1` [I-696]: the IC50 in assay [1] and in assay [2] was under 2000 nM in each case.

Consider `O=C(O)CCOC[C@@H]1[C@@H](O)CCN1c1cc(-n2ccnc2)c2ccc(Cl)c(Cl)c2n1` [I-698], for which the IC50 in assay [1] is over 10000 nM; in assay [2], under 2000 nM.

Consider `O=C(O)CCOC[C@@H]1CC(F)(F)CN1c1cc(-n2ccnc2)c2ccc(Cl)c(Cl)c2n1` [I-699], for which the IC50 in assay [1] and in assay [2] was under 2000 nM each time.

With `COC(=O)C(F)COC[C@@H]1CCCN1c1cc(-n2ccnc2)c2ccc(Cl)c(Cl)c2n1` (some centres unmarked) [I-700], the results for the IC50 in assay [1] and in assay [2] were 2000 to 10000 nM and under 2000 nM, respectively.

On to `COC(=O)CCOC[C@@H]1[C@@H](O)CCN1c1cc(-n2ccnc2)c2ccc(Cl)c(Cl)c2n1` [I-701], for which the figures for the IC50 in assay [1] and in assay [2] were 2000 to 10000 nM and under 2000 nM, respectively.

With `O=C(O)CCOC[C@@H]1C[C@H](O)CN1c1cc(-n2ccnc2)c2ccc(Cl)c(Cl)c2n1` [I-702], the IC50 in assay [1] is 2000 to 10000 nM; in assay [2], under 2000 nM.

Take `O=C(O)CCOC[C@@H]1C[C@H](F)CN1c1cc(-n2ccnc2)c2ccc(Cl)c(Cl)c2n1` [I-705]: the IC50 in assay [1] and in assay [2] was under 2000 nM throughout.

Turning to `O=C(O)COC[C@@H]1C[C@H](F)CN1c1cc(-n2ccnc2)c2ccc(Cl)c(Cl)c2n1` [I-706], the IC50 in assay [1] and in assay [2] was under 2000 nM each time.

Turning to `O=C(O)CCOC[C@@H]1C[C@@H]2C[C@@H]2N1c1cc(-n2ccnc2)c2ccc(Cl)c(Cl)c2n1` [I-707], the IC50 in assay [1] and in assay [2] was under 2000 nM in each case.

Take `C[C@H]1C[C@@H](COCCC(=O)O)N(c2cc(-n3ccnc3)c3ccc(Cl)c(Cl)c3n2)C1` [I-708]: the IC50 in assay [1] and in assay [2] was under 2000 nM throughout.

Regarding `O=C(O)CCOC[C@@H]1CC2(CC2)CN1c1cc(-n2ccnc2)c2ccc(Cl)c(Cl)c2n1` [I-709], the IC50 in assay [1] and in assay [2] was under 2000 nM in each case.

Regarding `O=C(O)CCOC[C@@H]1[C@H]2C[C@H]2CN1c1cc(-n2ccnc2)c2ccc(Cl)c(Cl)c2n1` [I-710], the IC50 in assay [1] was 2000 to 10000 nM; in assay [2], under 2000 nM.

With `CO[C@@H]1C[C@@H](COCCC(=O)O)N(c2cc(-n3ccnc3)c3ccc(Cl)c(Cl)c3n2)C1` [I-711], the IC50 in assay [1] and in assay [2] was under 2000 nM in each case.

On to `O=C(O)CCOC[C@@H]1C[C@@H](OCc2ccccc2)CN1c1cc(-n2ccnc2)c2ccc(Cl)c(Cl)c2n1` [I-712], for which the IC50 in assay [1] and in assay [2] was under 2000 nM in each case.

For `O=C(O)CCOC[C@@H]1C[C@H](Oc2ccccc2)CN1c1cc(-n2ccnc2)c2ccc(Cl)c(Cl)c2n1` [I-713], the IC50 in assay [1] and in assay [2] was under 2000 nM throughout.

As to `O=C(O)CCOCC[C@@H]1CC[C@@H](C(=O)O)N1c1cc(-n2ccnc2)c2ccc(Cl)c(Cl)c2n1` [I-714, (2S,5S)-5-(2-(2-carboxyethoxy)ethyl)-1-(7,8-dichloro-4-(1H-imidazol-1-yl)quinolin-2-yl)pyrrolidine-2-carboxylic acid], the values for the IC50 in assay [1] and in assay [2] were 2000 to 10000 nM and under 2000 nM, respectively.

With `O=C(O)COCC[C@@H]1CC[C@@H](C(=O)O)N1c1cc(-n2ccnc2)c2ccc(Cl)c(Cl)c2n1` [I-715, (2S,5S)-5-(2-(carboxymethoxy)ethyl)-1-(7,8-dichloro-4-(1H-imidazol-1-yl)quinolin-2-yl)pyrrolidine-2-carboxylic acid], the IC50 in assay [1] was over 10000 nM; in assay [2], under 2000 nM.

One may read the IC50 as the concentration that inhibits the measured activity by half.
